# From patent US20180228780A1, “3-(1H-PYRROLO[2,3-C]PYRIDIN-2-YL)-1H-INDAZOLES AND THERAPEUTIC USES THEREOF” (Samumed, LLC, priority 2015, published 2018)
# Experiments:
# Assay type in all cases: cell-based
# [1] = system: SW480 colon cancer cells; experiment: Cell viability assay (CellTiter-Blue) in SW480 colon cancer cells; conditions: Homo sapiens; for EC50: 96 h, SW480 cell viability, four days incubation; for inhibition at 10 µM: SW480, read-out: percent inhibition at 10 μM
# Method: Representative compounds were screened using the following assay procedure to assess the effect on cell viability as described below.
# Approximately 2×10^3 SW480 colon cancer cells were seeded into each well and allowed to incubate in the presence or absence of compound for four days at 37° C./5% CO2. Eight replicates of DMSO-treated cells served as controls and cells treated with compound were performed in duplicate.
# After incubation, 20 μL of CellTiter-Blue (Promega) was added to each well allowed to incubate for approximately 3 hours. This reagent was a buffered solution which contains resazurin, metabolically active cells were able to reduce rezarurin (blue) into resorufin (pink) which was highly fluorescent. This measured fluorescence was used as a readout for cell viability.
# [2] = system: Primary human fibroblasts derived from IPF patients (LL29 cells); experiment: Inhibition of the fibrotic process: αSMA staining in TGF-β1-treated LL29 fibroblasts; conditions: Fibroblast; for EC50: 96 h, LL29 cells, TGF-β1 20 ng/mL, 4 days, % αSMA-positive cells; for inhibition at 10 µM: read-out: percent inhibition at 10 μM
# Description: Representative compounds were screened using primary human fibroblasts (derived from IFF patients) treated with TGF-β1 to determine their ability to inhibit the fibrotic process.
# K. L., et.al., “RhoA signaling modulates cyclin D1 expression in human lung fibroblasts; implications for idiopathic pulmonary fibrosis”, Respiratory Research (2006), 7(1), 88] were obtained from American Type Culture Collection (ATCC) and expanded in F12 medium supplemented with 15% Fetal Bovine Serum and Penicillin/Streptomycin.
# LL29 cells are plated at 1,500 cells/well in 80 μL/well F12 medium supplemented with 1% Fetal Bovine Serum. […] Wells treated with TGF-β1 and containing DMSO were used as controls. […] Following incubation for 4 days, SYTOX green nucleic acid stain (Life Technologies [Thermo Fisher Scientific]) was added to the wells at a final concentration of 1 μM and incubated at room temperature for 30 min.
# [3] = system: Wnt activity (Sp5-Luc reporter, SW480 colon carcinoma cells); experiment: Screening assay for Wnt activity: Sp5-Luc reporter gene assay in SW480 cells; conditions: Homo sapiens; for EC50: SW480 Sp5-Luc reporter, overnight incubation
# Description: The screening assay for Wnt activity is described as follows. Reporter cell lines can be generated by stably transducing cancer cell lines (e.g., colon cancer) or primary cells (e.g., IEC-6 intestinal cells) with a lentiviral construct that includes a Wnt-responsive promoter driving expression of the firefly luciferase gene.
# SW480 colon carcinoma cells were transduced with a lentiviral vector expressing luciferase with a human Sp5 promoter consisting of a sequence of eight TCF/LEF binding sites. SW480 cells stably expressing the Sp5-Luc reporter gene and a hygromycin resistance gene were selected by treatment with 150 μg/mL of hygromycin for 7 days. These stably transduced SW480 cells were expanded in cell culture and used for all further screening activities. […] For Sp5-Luc reporter gene assays, the cells were plated at 4,000 cells/well in 384-well plates with medium containing 1% fetal bovine serum and incubated overnight at 37° C. and 5% CO2. Following incubation, 20 μl of BrightGlo luminescence reagent (Promega) was added to each well of the 384-well assay plates. The plates were placed on an orbital shaker for 2 min and then luminescence was quantified using the Envision (Perkin Elmer) plate reader. Readings were normalized to DMSO only treated cells, and normalized activities were utilized for EC50 calculations using the dose-response log (inhibitor) vs. response-variable slope (four parameters) nonlinear regression feature available in GraphPad Prism 5.0 (or Dotmatics).
# [4] = system: IL-6 (THP-1 cells); experiment: IL-6 inhibition in THP-1 monocytes (HTRF); conditions: Homo sapiens; for EC50: IL-6 inhibition, THP-1 cells, HTRF, 10-point dose-response starting from 10 μM; for inhibition at 10 µM: THP-1, read-out: percentage in parentheses printed under EC50 >10
# Method: Compound Screening: THP-1 cells were cultured in basal media with 1% FBS for 24 hours before the start of the assay. […] THP-1 cells were plated at 5000 cells/well in the 384-well plates and incubated at 37° C. for 2 h. 500 ng/mL of […] was added after 2 hours and cells were incubated for another 22 hours at 37° C. Plates were spun in a centrifuge for 1 minute at 10,000 rpm and a mixture of anti-IL6 XL665, and anti-IL6 Cryptate diluted in reconstitution buffer (Cisbio Inc.) was added to each well. Following incubation for 3 hrs at room temperature, Homogeneous Time-Resolved Fluorescence (HTRF) was measured using the Envision (Perkin Elmer) at 665 nm and […]. The ratio of fluorescence at 665 nm to 620 nm was used as a readout for IL6 quantification. All samples were processed in duplicate. Readings were normalized to DMSO treated cells and normalized activities were utilized for EC50 calculations using the dose-response log (inhibitor) vs. response-variable slope (four parameters) nonlinear regression feature available in GraphPad Prism 5.0 (or Dotmatics).
SMILES,EC50 [1],EC50 [3],EC50 [4],EC50 [2],inhibition at 10 µM [1],inhibition at 10 µM [2],inhibition at 10 µM [4],"inhibition at 10 µM ([3]; SW480, read-out: percent inhibition at 10 μM)"
"Fc1cccc(-c2cncc3[nH]c(-c4n[nH]c5ccc(-c6cccnc6)cc45)cc23)c1 [Compound 4, 3-(4-(3-Fluorophenyl)-1H-pyrrolo[2,3-c]pyridin-2-yl)-5-(pyridin-3-yl)-1H-indazole]",1380 nM,395 nM,783 nM,1630 nM,,,,
"Fc1ccccc1-c1cncc2[nH]c(-c3n[nH]c4ccc(-c5cncc(CN6CCCCC6)c5)cc34)cc12 [Compound 71, 3-(4-(2-Fluorophenyl)-1H-pyrrolo[2,3-c]pyridin-2-yl)-5-(5-(piperidin-1-ylmethyl)pyridin-3-yl)-1H-indazole]",3420 nM,4260 nM,3300 nM,2310 nM,,,,
"CS(=O)(=O)NCc1cc(F)cc(-c2cncc3[nH]c(-c4n[nH]c5ccc(-c6cncnc6)cc45)cc23)c1 [Compound 503, N-(3-Fluoro-5-(2-(5-(pyrimidin-5-yl)-1H-indazol-3-yl)-1H-pyrrolo[2,3-c]pyridin-4-yl)benzyl)methanesulfonamide]",> 10000 nM,2540 nM,42 nM,> 10000 nM,20.3%,17.1%,,
"CS(=O)(=O)NCc1cc(F)cc(-c2cncc3[nH]c(-c4n[nH]c5ccc(-c6cncc(OCc7ccccc7)c6)cc45)cc23)c1 [Compound 774, N-(3-(2-(5-(5-(Benzyloxy)pyridin-3-yl)-1H-indazol-3-yl)-1H-pyrrolo[2,3-c]pyridin-4-yl)-5-fluorobenzyl)methanesulfonamide]",2010 nM,2150 nM,> 10000 nM,1490 nM,,,45%,
"Nc1cncc(-c2ccc3[nH]nc(-c4cc5c(N6CCCCC6)cncc5[nH]4)c3c2)c1 [Compound 171, 5-(3-(4-(Piperidin-1-yl)-1H-pyrrolo[2,3-c]pyridin-2-yl)-1H-indazol-5-yl) pyridin-3-amine]",> 10000 nM,3650 nM,1540 nM,> 10000 nM,43%,9.8%,,
"O=C(Nc1cncc(-c2ccc3[nH]nc(-c4cc5c(-c6ccncc6)cncc5[nH]4)c3c2)c1)C1CCCCC1 [Compound 135, N-(5-(3-(4-(Pyridin-4-yl)-1H-pyrrolo[2,3-c]pyridin-2-yl)-1H-indazol-5-yl)pyridin-3-yl)cyclohexanecarboxamide]",> 10000 nM,> 10000 nM,1630 nM,9980 nM,6.1%,,,20.8%
"NC1CN(c2cncc(-c3ccc4[nH]nc(-c5cc6c(N7CCCCC7)cncc6[nH]5)c4c3)n2)C1 [Compound 606, 1-(6-(3-(4-(Piperidin-1-yl)-1H-pyrrolo[2,3-c]pyridin-2-yl)-1H-indazol-5-yl)pyrazin-2-yl)azetidin-3-amine]",2810 nM,738 nM,306 nM,486 nM,,,,
"Fc1ccc(-c2cncc3[nH]c(-c4n[nH]c5ccc(C6=CCNCC6)cc45)cc23)cc1 [Compound 522, 3-(4-(4-Fluorophenyl)-1H-pyrrolo[2,3-c]pyridin-2-yl)-5-(1,2,3,6-tetrahydropyridin-4-yl)-1H-indazole]",1670 nM,3980 nM,> 10000 nM,2690 nM,,,22%,

# Second part, led by results:
EC50 [1],EC50 [3],EC50 [4],SMILES,EC50 [2],inhibition at 10 µM [1],inhibition at 10 µM [2],inhibition at 10 µM [4],"inhibition at 10 µM ([3]; SW480, read-out: percent inhibition at 10 μM)"
1350 nM,1830 nM,436 nM,"Fc1ccccc1-c1cncc2[nH]c(-c3n[nH]c4ccc(-c5cncc(OC6CCNCC6)c5)cc34)cc12 [Compound 544, 3-(4-(2-Fluorophenyl)-1H-pyrrolo[2,3-c]pyridin-2-yl)-5-(5-(piperidin-4-yloxy)pyridin-3-yl)-1H-indazole]",2760 nM,,,,
1220 nM,1240 nM,6420 nM,"O=C(Nc1cncc(-c2ccc3[nH]nc(-c4cc5c(-c6ccccc6F)cncc5[nH]4)c3c2)c1)C1CCCC1 [Compound 78, N-(5-(3-(4-(2-Fluorophenyl)-1H-pyrrolo[2,3-c]pyridin-2-yl)-1H-indazol-5-yl)pyridin-3-yl)cyclopentanecarboxamide]",1410 nM,,,,
1170 nM,3080 nM,7050 nM,"CN(C)Cc1cncc(-c2ccc3[nH]nc(-c4cc5c(-c6ccc(F)cc6)cncc5[nH]4)c3c2)c1 [Compound 41, 1-(5-(3-(4-(4-Fluorophenyl)-1H-pyrrolo[2,3-c]pyridin-2-yl)-1H-indazol-5-yl)pyridin-3-yl)-N,N-dimethylmethanamine]",1190 nM,,,,
1010 nM,1510 nM,349 nM,"CCCC(=O)Nc1cncc(-c2ccc3[nH]nc(-c4cc5c(-c6ccc(F)cc6)cncc5[nH]4)c3c2)c1 [Compound 45, N-(5-(3-(4-(4-Fluorophenyl)-1H-pyrrolo[2,3-c]pyridin-2-yl)-1H-indazol-5-yl)pyridin-3-yl)butyramide]",290 nM,,,,
923 nM,630 nM,796 nM,"Fc1ccccc1-c1cncc2[nH]c(-c3n[nH]c4ccc(-c5cncc(CN6CCC(F)(F)C6)c5)cc34)cc12 [Compound 82, 5-(5-((3,3-Difluoropyrrolidin-1-yl)methyl)pyridin-3-yl)-3-(4-(2-fluorophenyl)-1H-pyrrolo[2,3-c]pyridin-2-yl)-1H-indazole]",648 nM,,,,
976 nM,2010 nM,2760 nM,"CN(C)CCOc1cncc(-c2ccc3[nH]nc(-c4cc5c(-c6ccc(F)cc6)cncc5[nH]4)c3c2)c1 [Compound 531, 2-((5-(3-(4-(4-Fluorophenyl)-1H-pyrrolo[2,3-c]pyridin-2-yl)-1H-indazol-5-yl)pyridin-3-yl)oxy)-N,N-dimethylethan-1-amine]",607 nM,,,,
570 nM,418 nM,219 nM,"c1cc(-c2cncc3[nH]c(-c4n[nH]c5ccc(-c6cncc(CN7CCCCC7)c6)cc45)cc23)co1 [Compound 323, 3-(4-(Furan-3-yl)-1H-pyrrolo[2,3-c]pyridin-2-yl)-5-(5-(piperidin-1-ylmethyl)pyridin-3-yl)-1H-indazole]",1390 nM,,,,
282 nM,200 nM,87 nM,"CCCC(=O)Nc1cncc(-c2ccc3[nH]nc(-c4cc5c(-c6cccc(F)c6)cncc5[nH]4)c3c2)c1 [Compound 17, N-(5-(3-(4-(3-Fluorophenyl)-1H-pyrrolo[2,3-c]pyridin-2-yl)-1H-indazol-5-yl)pyridin-3-yl)butyramide]",254 nM,,,,
812 nM,626 nM,263 nM,"CC(C)C(=O)Nc1cncc(-c2ccc3[nH]nc(-c4cc5c(-c6ccccc6F)cncc5[nH]4)c3c2)c1 [Compound 65, N-(5-(3-(4-(2-Fluorophenyl)-1H-pyrrolo[2,3-c]pyridin-2-yl)-1H-indazol-5-yl)pyridin-3-yl)isobutyramide]",1250 nM,,,,
1180 nM,1760 nM,> 10000 nM,CCCCC(=O)Nc1cncc(-c2ccc3[nH]nc(-c4cc5c(-c6ccccc6F)cncc5[nH]4)c3c2)c1 [Compound 75],1160 nM,,,39.1%,
